Experimental data as given in patent US11034681B2, “Crystal form of indole derivative and preparation method and use thereof” (CHIA TAI TIANQING PHARMACEUTICAL GROUP CO., LTD., priority 2018, dated 2021).

Assays:
[1] = molecular target: T1, CRTH2 receptor (Homo sapiens, UniProt Q9Y5Y4); assay: PathHunter CHO-K1 CRTH2 β-arrestin antagonist assay; type: cell-based; conditions: PathHunter CHO-K1 CRTH2 β-arrestin cells, PGD2 agonist at EC80
T1 sequence (Q9Y5Y4 1-395): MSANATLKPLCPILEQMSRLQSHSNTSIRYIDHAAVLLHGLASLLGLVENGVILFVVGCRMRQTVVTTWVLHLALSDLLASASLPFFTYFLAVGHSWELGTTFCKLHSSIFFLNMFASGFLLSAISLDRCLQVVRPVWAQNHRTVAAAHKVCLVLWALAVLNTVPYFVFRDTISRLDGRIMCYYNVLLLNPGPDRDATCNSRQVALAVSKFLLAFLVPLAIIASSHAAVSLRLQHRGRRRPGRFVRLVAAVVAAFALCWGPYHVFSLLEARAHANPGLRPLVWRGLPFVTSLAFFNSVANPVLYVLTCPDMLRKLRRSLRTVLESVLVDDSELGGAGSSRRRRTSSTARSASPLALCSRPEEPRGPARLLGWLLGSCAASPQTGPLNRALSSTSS
Method: PathHunter® CHO-K1 CRTH2 β-arrestin cells (DiscoverX, catalogue number 93-0291C2) grew under standard conditions, and were inoculated into a white-wall 384-well microplate at a density of 5,000 cells/well. 20 μL of Cell Plating Reagent 1 was used in each well. Before the test, the cells were incubated overnight at 37° C./5% CO2. A test compound was serially diluted in DMSO with a dilution factor of 3-fold to give 8 concentrations of the test compound. Shortly before the test, the serially diluted test compound was further diluted with the test buffer to 5 times of the test concentration. 5 μL of the further diluted test compound was added to the cells, and the cells were incubated for 30 min at 37° C. The concentration of the solvent was 1%. 5 μL of 6×EC80 agonist (PGD2) buffer was added to the cells, and the cells were incubated for 90 min at 37° C. Measured signals were generated by one-time addition of 15 μL (50% v/v) of PathHunter detection mixture reagent and subsequent one-hour incubation. The microplate was read through the chemiluminescent signals of PerkinElmer Envision™ reader. Biological activity of the test compound was analyzed by CBIS data analysis suite (ChemInnovation, CA), and was denoted as IC50 value.

[2] = Stability test of crystal form A (impurity content); type: physicochemical
Excerpt: (§1) Samples placed under high temperature and high humidity conditions were sealed with aluminum foil, and small holes were made in the foil to ensure that the samples can fully contact with ambient air. Samples placed under strong light conditions were sealed with screw caps.

[3] = tested on: mice model of chronic/acute asthma induced by ovalbumin (OVA) and aluminum hydroxide (Al(OH)3); assay: Mice model of chronic/acute asthma induced by OVA and Al(OH)3; type: in vivo
[4] = Solid stability test of crystal form A (crystal form); type: physicochemical
Excerpt: as §1

[5] = Plasma pharmacokinetic assay in mice; type: in vivo; conditions: mouse, female C57 BL/6 mice
Method: Twelve female C57 BL/6 mice were used in plasma pharmacokinetic assay, randomly divided into two groups, with 6 animals in each group. Animals in the first group were administered intravenously 1 mg/kg of the test drug, and animals in the second group were administered intragastrically 5 mg/kg of the test drug. A formula comprising HPbCD and cosolvent (Solutol®) was used as formulation vehicle, and the obtained intravenous or intragastric formulations were all clear solutions. For animals in the intravenous group and the intragastric group, blood was collected from the saphenous vein at 0.0833, 0.25, 0.5, 1, 2, 4, 8, and 24 hours after administration, with 3 samples at each time point. Plasma samples collected from the intragastric administration group were frozen at −80° C. and thawed before LC-MS/MS sample analysis. The thawed plasma samples were subjected to protein precipitation by adding acetonitrile containing an internal standard in a certain ratio, and centrifuged to obtain a supernatant for LC-MS/MS injection. AP14000 or 5500 was used as the analytical instrument, ACQUITY UPLC BEH C18 (2.1×50 mm, 1.7 μm) was used as the chromatographic column, and the ionization of the test compound was performed by an ESI positive or negative ion source. There were 8 concentrations of the standard sample in each analysis batch, the ratio of the peak area of the test compound to the peak area of the internal standard (IS) was noted as Y, the concentration of the test compound in the plasma sample was noted as X, 1/x^2 was taken as the weighting coefficient to carry on the linear regression, and the regression equation of response and concentration was obtained. There were also corresponding quality control samples in each analysis batch. Phoenix 6.3 WinNonlin® was used for data processing to give corresponding PK parameters.

[6] = molecular target: T1, CRTH2 receptor; conditions: background statement; cited from earlier work

Structure (SMILES): Cc1c(Cc2ccc3c(c2)C(F)(F)CCS3(=O)=O)c2cc(F)ccc2n1CC(=O)O [Compound 1]
- IC50 [1]: < 100 nM

Structure (SMILES): Cc1c(Cc2ccc3c(c2)C(F)(F)CCS3(=O)=O)c2cc(F)ccc2n1CC(=O)O [Crystal Form A of Compound 1]
- Impurity Content ([2]; 0 Day (Table 5)): 0.07%
- Impurity Content ([2]; 25° C/60% RH, 3 months): 0.09%
- Impurity Content ([2]; 25° C/60% RH, 6 months): 0.13%
- Impurity Content ([2]; 30° C/65% RH, 3 months): 0.09%
- Impurity Content ([2]; 30° C/65% RH, 6 months): 0.15%
- Impurity Content ([2]; 40° C/75% RH, 0 Day (Table 6)): 0.07%
- Impurity Content ([2]; 40° C/75% RH, 1 month): 0.17%
- Impurity Content ([2]; 40° C/75% RH, 2 months): 0.13%
- number of eosinophils [3]: significantly reduce the number of eosinophils
- Crystal Form ([4]; 40° C, Reletive Humidity 75%, Exposure, day 10): Crystal Form A
- Crystal Form ([4]; 40° C, Reletive Humidity 75%, Exposure, day 30): Crystal Form A
- Crystal Form ([4]; 40° C, Reletive Humidity 75%, Exposure, day 60): Crystal Form A
- Crystal Form ([4]; 40° C, Reletive Humidity 75%, Exposure, day 90): Crystal Form A
- Crystal Form ([4]; 60° C, Reletive Humidity 75%, Exposure, day 10): Crystal Form A
- Crystal Form ([4]; 60° C, Reletive Humidity 75%, Exposure, day 30): Crystal Form A
- Crystal Form ([4]; 60° C, Reletive Humidity 75%, Exposure, day 60): Crystal Form A
- Crystal Form ([4]; 60° C, Reletive Humidity 75%, Exposure, day 90): Crystal Form A
- Crystal Form ([4]; High Humidity (Room temperature/Reletive Humidity 92.5%, Exposure), day 5): Crystal Form A
- Crystal Form ([4]; High Humidity (Room temperature/Reletive Humidity 92.5%, Exposure), day 10): Crystal Form A
- Crystal Form ([4]; High Temperature (60° C., Exposure), day 5): Crystal Form A
- Crystal Form ([4]; High Temperature (60° C., Exposure), day 10): Crystal Form A
- Crystal Form ([4]; Strong Light (5000 lx, Sealed), day 5): Crystal Form A
- Crystal Form ([4]; Strong Light (5000 lx, Sealed), day 10): Crystal Form A
- Crystal Form ([4]; day 0): Crystal Form A
- clearance ([5]; intravenous 1 mg/kg, read-out: Clearance Rate of Intravenous Administration (Cl, mL/min/kg)): 4.55 mL/min/kg
- half-life ([5]; po, intragastric 5 mg/kg, read-out: Half-life of Intragastric Administration (T1/2, hr) (converted)): 3.19 h
- Cmax ([5]; po, intragastric 5 mg/kg, read-out: Maximum Blood Concentration of Intragastric Administration (Cmax)): 6.77 µM
- AUC ([5]; po, intragastric 5 mg/kg, read-out: Plasma Exposure of Intragastric Administration (AUC, nM*hr)): 26000 nM·h

Structure (SMILES): O=C(O)CCn1c2c(c3ccccc31)C[C@H](NS(=O)(=O)c1ccc(F)cc1)CC2 [Ramatroban]
- CRTH2 receptor antagonism [6]: weak CRTH2 receptor antagonist
